Measurements taken from publication PMC7403315, “Cyclic peptide FXII inhibitor provides safe anticoagulation in a thrombosis model and in artificial lungs” (Nature Communications, 2020).
Values joined by “and” are separate entries in the source; they are usually repeats but may differ in a detail not shown here. Identical values can stand only once. Starred links: 1 amine or outer side, 2 acyl side, 3 side chain; linkers in the order of their positions; H or OH if unused. Positions of bridges follow the written chain, without caps; N, C: chain ends. Non-standard residues stand in square brackets, D forms with d. Residues, ends and D or L forms follow the SMILES beside them. TATA = O=C(CC[*:1])N1CN(C(=O)CC[*:2])CN(C(=O)CC[*:3])C1; Phe(4-F) = N[C@@H](Cc1ccc(F)cc1)C(=O)O; β3hR = N=C(N)NCCC[C@H](N)CC(=O)O

Molecular target: T1, tPA (Homo sapiens, UniProt P00750)
T1 construct: purchased Molecular Innovations
T1 sequence (P00750 36-562): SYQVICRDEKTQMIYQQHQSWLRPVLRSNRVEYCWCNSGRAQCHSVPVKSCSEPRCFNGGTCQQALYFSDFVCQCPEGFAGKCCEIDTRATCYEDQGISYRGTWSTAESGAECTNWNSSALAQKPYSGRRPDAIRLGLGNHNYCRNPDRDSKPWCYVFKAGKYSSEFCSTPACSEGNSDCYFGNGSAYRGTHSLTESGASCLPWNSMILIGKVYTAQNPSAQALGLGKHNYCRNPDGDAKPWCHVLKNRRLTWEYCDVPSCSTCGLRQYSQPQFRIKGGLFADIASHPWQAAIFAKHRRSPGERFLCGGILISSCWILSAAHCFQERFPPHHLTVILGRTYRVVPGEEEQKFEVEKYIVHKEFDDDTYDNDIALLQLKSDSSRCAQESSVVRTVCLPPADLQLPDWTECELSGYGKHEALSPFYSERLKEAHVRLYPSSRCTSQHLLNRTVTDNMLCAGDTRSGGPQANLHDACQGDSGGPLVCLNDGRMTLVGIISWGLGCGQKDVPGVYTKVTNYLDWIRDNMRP
Assay: Specificity profiling, residual protease activity
Type: biochemical
Procedure: Protease inhibition assays
The inhibitory activity of peptides was determined by measuring the residual protease activity with a fluorogenic substrate. The assay was performed in buffer containing 10 mM Tris-Cl, pH […]
1% (v/v) DMSO in a volume of 150 µl. […]
HFXIIAB) were used at final concentrations of 0.4 nM. The reaction was pipetted as follows: 50 µl of bicyclic peptide in assay buffer were added to 50 µl of FXIIa in assay buffer and incubated for 10 minutes at 25°C before 50 µl of 150 µM fluorogenic substrate in assay buffer were added to measure the residual protease activity with an Infinite M200Pro fluorescence plate reader (excitation at 368 nm, emission at 467 nm; Tecan) for a period of 30 minutes with a read every minute at 25°C. The Tecan software i-control (version 1.1) was used for data analysis. Stock solutions of 1 mM bicyclic peptide were prepared by either dissolving the unpurified cyclization reaction with water or by dissolving purified and lyophilized peptide in water. The bicyclic peptides were serially diluted two-fold using assay buffer. Sigmoidal curves were fitted to the data using the following dose response equation (1), wherein x = peptide concentration, y = % protease activity, and p = Hill slope. IC50 values were derived from the fitted curve.
The inhibition constants (Ki) were calculated according to the equation of Cheng and Prusoff, Ki = IC50/(1+([S]0/Km), wherein IC50 is the functional strength of the inhibitor, [S]0 is the total substrate concentration, and Km is the Michaelis-Menten constant. […]
For testing the specificity of the bicyclic peptides, the following final concentrations of human serine proteases were used: tPA (Molecular Innovations) 7.5 nM, uPA (Molecular Innovations) 1.5 nM, factor XIa (Innovative Research) 6 nM, plasma kallikrein (Innovative Research) 0.25 nM, thrombin (Molecular Innovations) 1 nM, plasmin (Molecular Innovations) 2.5 nM, trypsin (Molecular Innovations) 0.05 nM, factor VIIa (Haematologic Technologies) 50 nM, factor Xa […]
(Haematologic Technologies) 6 nM, and activated protein C (APC) 5 nM. Two-fold dilutions of the peptide were prepared that ranged from 0.04 to 40 µM. The following fluorogenic substrates were used at a final concentration of 50 µM: Z-Phe-Arg-AMC (Bachem) for plasma kallikrein; Boc-Phe-Ser-Arg-AMC (Bachem) for factor XIa; Z-Gly-Gly-Arg-AMC (Bachem) for tPA, uPA, thrombin, and trypsin; H-D-Val-Leu-Lys-AMC (Bachem) for plasmin; and D-Phe-Pro-Arg-ANSNH-C4H9 (Haematologic Technologies) for FVIIa and FXa. For APC, the chromogenic substrate pyroGlu-Pro-Arg-pNA (S2366) was used at a concentration of 400 µM. […]

SMILES: CC(C)C[C@@H]1NC(=O)[C@H](CCC(N)=O)NC(=O)[C@H](Cc2c[nH]cn2)NC(=O)[C@@H]2CSCCC(=O)N3CN(CN(C3)C(=O)CCSC[C@H](NC(=O)[C@@H](CO)NC(=O)[C@H](N)CCCNC(=N)N)C(=O)N[C@@H](Cc3ccc(F)cc3)C(=O)N[C@@H](CCCNC(=N)N)C(=O)N[C@@H](CC(C)C)C(=O)N3CCC[C@H]3C(=O)N2)C(=O)CCSC[C@@H](C(N)=O)NC(=O)C[C@H](CCCNC(=N)N)NC1=O [FXII900] (H-[dR][dS]C[Phe(4-F)]RLPCHQL[β3hR]C-NH2; linker 3-8-13 via TATA)
- Ki: > 40 µM
- remaining activity at 0.0390625 µM (inhibitor 39.0625 nM): 95.1%
- Residual activity of tPa (inhibitor 39.0625 nM, 0.0390625 µM): 93.3208%
- remaining activity at 0.078125 µM (inhibitor 78.125 nM): 95.9%
- Residual activity of tPa (inhibitor 78.125 nM, 0.078125 µM): 101.687%
- remaining activity at 0.15625 µM (inhibitor 156.25 nM): 98.8%
- Residual activity of tPa (inhibitor 156.25 nM, 0.15625 µM): 101.694%
- remaining activity at 0.3125 µM (inhibitor 312.5 nM): 97.2%
- Residual activity of tPa (inhibitor 312.5 nM, 0.3125 µM): 101.741%
- remaining activity at 0.625 µM (inhibitor 625 nM): 95%
- Residual activity of tPa (inhibitor 625 nM, 0.625 µM): 94.8368%
- remaining activity at 1.25 µM (inhibitor 1250 nM): 101%
- Residual activity of tPa (inhibitor 1250 nM, 1.25 µM): 102.859%
- remaining activity at […] (inhibitor 2500 nM): 100%
- Residual activity of tPa (inhibitor 2500 nM, […]): 101.452%
- remaining activity at 5 µM (inhibitor 5000 nM): 87.2%
- Residual activity of tPa (inhibitor 5000 nM, 5 µM): 93.856%
- Residual activity of tPa (inhibitor 10000 nM, 10 µM): 102.407% and 77.7753%
- remaining activity at 20 µM (inhibitor 20000 nM): 89.2%
- Residual activity of tPa (inhibitor 20000 nM, 20 µM): 97.2498%
- remaining activity at 40 µM (inhibitor 40000 nM (40 µM)): 97%
- Residual activity of tPa (inhibitor 40000 nM (40 µM), 40 µM): 94.4809% and 101.833%
